Values of other authors, collected in patent US9662414B2, “Dressing system” (Edixomed Limited, priority 2013, dated 2017).

Conditions: healthy 70 kg-adult
For COC(=O)[C@H]1[C@@H](OC(=O)c2ccccc2)C[C@@H]2CC[C@H]1N2C [cocaine], the “generally accepted safe dosage for topical anaesthesia” value (“generally accepted safe dosage” below) is listed as 200 mg. For CCN(CC)CC(=O)Nc1c(C)cccc1C [lidocaine], the “generally accepted safe dosage” value is listed as 750 mg. For CCCCNc1ccc(C(=O)OCCN(C)C)cc1 [tetracaine], the “generally accepted safe dosage” value is given as 50 mg.
